In ChEMBL document CHEMBL1817594, “Multi-target strategy to address Alzheimer's disease: design, synthesis and biological evaluation of new tacrine-based dimers” (Eur J Med Chem, 2011):

Tests used:
Cholinesterase = Cholinesterase (Homo sapiens, UniProt P06276)
Description: Inhibition of human serum recombinant BChE using butyrylthiocholine iodide as substrate preincubated for 20 mins by Ellman's method

Acetylcholinesterase [1] = target: T1, Acetylcholinesterase (Homo sapiens, UniProt P22303); assay: Mixed-type inhibition of human AChE assessed as hydrolysis of acetylthiocholine by Lineweaver-Burk plot analysis
Beta-secretase 1 [2] = target: T2, Beta-secretase 1 (Homo sapiens, UniProt P56817); assay: Inhibition of BACE1 expressed in baculovirus assessed as inhibition of amyloid beta-42 production at 10 uM after 60 mins by spectrofluorometric assay
Acetylcholinesterase [3] = target: T1, Acetylcholinesterase
Description: Inhibition of human serum recombinant AChE using acetylthiocholine iodide as substrate preincubated for 20 mins by Ellman's method

Beta-secretase 1 [4] = target: T2, Beta-secretase 1
Description: Inhibition of BACE1 expressed in baculovirus assessed as inhibition of amyloid beta-42 production after 60 mins by spectrofluorometric assay

Cholinesterase, sequence (P06276 whole entry): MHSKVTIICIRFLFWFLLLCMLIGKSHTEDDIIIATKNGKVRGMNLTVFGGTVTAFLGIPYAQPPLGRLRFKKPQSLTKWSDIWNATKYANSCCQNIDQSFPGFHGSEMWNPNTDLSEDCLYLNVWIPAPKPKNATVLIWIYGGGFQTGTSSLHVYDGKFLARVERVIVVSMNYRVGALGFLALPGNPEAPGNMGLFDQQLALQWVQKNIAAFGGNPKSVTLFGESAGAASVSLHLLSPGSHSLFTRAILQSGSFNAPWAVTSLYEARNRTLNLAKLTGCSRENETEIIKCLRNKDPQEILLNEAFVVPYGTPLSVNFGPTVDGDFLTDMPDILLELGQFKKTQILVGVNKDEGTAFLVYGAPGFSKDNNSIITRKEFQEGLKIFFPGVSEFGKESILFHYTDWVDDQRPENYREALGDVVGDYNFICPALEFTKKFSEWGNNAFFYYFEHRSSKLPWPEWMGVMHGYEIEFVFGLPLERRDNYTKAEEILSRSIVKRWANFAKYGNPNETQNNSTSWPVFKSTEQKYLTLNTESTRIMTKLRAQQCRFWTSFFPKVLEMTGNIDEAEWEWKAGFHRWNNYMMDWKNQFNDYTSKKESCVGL
T2 sequence (P56817 whole entry): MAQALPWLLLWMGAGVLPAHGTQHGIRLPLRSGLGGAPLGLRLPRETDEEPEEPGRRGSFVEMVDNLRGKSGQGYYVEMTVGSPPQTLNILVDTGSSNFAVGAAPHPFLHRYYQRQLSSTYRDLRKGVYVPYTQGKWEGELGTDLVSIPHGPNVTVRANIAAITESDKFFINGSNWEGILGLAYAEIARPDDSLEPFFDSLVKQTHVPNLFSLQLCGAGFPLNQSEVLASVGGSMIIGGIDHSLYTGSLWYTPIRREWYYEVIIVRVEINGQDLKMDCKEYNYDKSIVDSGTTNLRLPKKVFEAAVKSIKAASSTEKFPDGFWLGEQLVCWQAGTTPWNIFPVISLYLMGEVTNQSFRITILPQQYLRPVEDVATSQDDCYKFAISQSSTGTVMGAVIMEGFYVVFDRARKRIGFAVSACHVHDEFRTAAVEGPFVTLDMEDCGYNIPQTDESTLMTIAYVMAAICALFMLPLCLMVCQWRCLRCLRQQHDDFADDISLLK
T1 sequence (P22303 whole entry): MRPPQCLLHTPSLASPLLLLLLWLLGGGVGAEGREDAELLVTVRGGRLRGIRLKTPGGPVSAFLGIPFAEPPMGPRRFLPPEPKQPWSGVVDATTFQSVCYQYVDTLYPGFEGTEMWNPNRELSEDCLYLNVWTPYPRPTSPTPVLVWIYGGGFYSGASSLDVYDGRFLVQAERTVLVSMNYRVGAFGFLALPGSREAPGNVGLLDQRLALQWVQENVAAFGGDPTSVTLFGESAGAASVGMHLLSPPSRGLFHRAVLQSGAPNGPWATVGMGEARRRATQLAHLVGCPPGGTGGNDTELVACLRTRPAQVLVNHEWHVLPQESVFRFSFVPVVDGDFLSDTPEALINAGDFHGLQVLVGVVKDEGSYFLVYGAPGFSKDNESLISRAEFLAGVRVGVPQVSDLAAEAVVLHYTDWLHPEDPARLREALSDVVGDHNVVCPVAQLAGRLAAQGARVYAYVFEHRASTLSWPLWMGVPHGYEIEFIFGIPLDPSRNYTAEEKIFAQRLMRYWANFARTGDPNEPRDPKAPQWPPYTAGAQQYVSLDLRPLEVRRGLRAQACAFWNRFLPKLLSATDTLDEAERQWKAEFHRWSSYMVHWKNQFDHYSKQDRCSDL

Structure (SMILES) | IC50 (Cholinesterase) | Ki (Acetylcholinesterase [1]) | inhibition (Beta-secretase 1 [2]) | IC50 (Acetylcholinesterase [3]) | IC50 (Beta-secretase 1 [4])
Clc1ccc2c(NCCCCCCCNc3c4c(nc5ccccc35)-c3ccccc3C4)c3c(nc2c1)CCCC3 | 63.7 nM | 1.01 nM | 27% | 1.05 nM | 1000 nM
Clc1ccc2c(NCCCCCCCOc3cccc(-c4cc5ccccc5o4)c3)c3c(nc2c1)CCCC3 | 41.4 nM | – | – | 258 nM | –
c1ccc2c(NCCCCCCCCCCN3CCOCC3)c3c(nc2c1)CCCC3 | 14.7 nM | – | – | 28.4 nM | –
c1ccc2c(NCCCCCCN3CCOCC3)c3c(nc2c1)CCCC3 | 101 nM | – | – | 68.9 nM | –
c1ccc2c(c1)Cc1c-2nc2ccccc2c1NCCCCCCCNc1c2c(nc3ccccc13)-c1ccccc1C2 | 28.6 nM | – | 27% | 455 nM | 400 nM
O=c1c2ccc(OCCCCCCCNc3c4c(nc5ccccc35)CCCC4)cc2oc2ncccc12 | 101 nM | – | – | 283 nM | –
c1ccc2c(NCCCCCCCN3CCOCC3)c3c(nc2c1)CCCC3 | 90.5 nM | – | – | 44.5 nM | –
c1ccc2c(NCCCCCCCCN3CCOCC3)c3c(nc2c1)CCCC3 | 42.8 nM | – | – | 16.5 nM | –
Clc1ccc2c(NCCCCCCCNc3c4c(nc5cc(Cl)ccc35)-c3ccccc3C4)c3c(nc2c1)CCCC3 | 1660 nM | – | – | 12.1 nM | –
c1ccc2c(c1)Cc1c-2nc2ccccc2c1NCCCCCCCNc1c2c(nc3ccccc13)CCCC2 | 24.8 nM | – | 27% | 13.9 nM | –
Clc1ccc2c(NCCCCCCCOc3ccc(-c4cc5ccccc5o4)cc3)c3c(nc2c1)CCCC3 | 7280 nM | – | – | 310 nM | –
c1ccc2c(NCCCCCCCCCN3CCOCC3)c3c(nc2c1)CCCC3 | 38.1 nM | – | – | 34 nM | –
